Reference: publication PMC8422164, “A comparison of three mucus-secreting airway cell lines (Calu-3, SPOC1 and UNCN3T) for use as biopharmaceutical models of the nose and lung” (European Journal of Pharmaceutics and Biopharmaceutics, 2021)

Tests used:
UNCN3T cells [1] = assay: Cytokine release (ELISA) in response to inhaled drugs, UNCN3T
Procedure: SPOC1 or UNCN3T cells were seeded onto 24-well tissue culture treated plates, pre-coated with a 1/20 dilution of Geltrex™. Cells were seeded at 5 × 10^4 cells/well and grown to confluence in the appropriate maintenance medium. The cells were washed four times (20 min per wash) with TB appropriate to each cell line after which the cells were incubated for 30 min at 37 °C 5% CO2/95% air in control or drug solutions prepared in the appropriate transport buffer. […] Samples from UNCN3T cells (human origin) were analysed for IL-6 and IL-8. Cytokines and mucins were quantified using ELISAs (Legend Max, BioLegend San Diego, CA) according to the manufacturer’s instructions and ELLA respectively.

UNCN3T cells [2] = assay: Mucin secretion (ELLA) in response to inhaled drugs, UNCN3T on Geltrex-coated plastic; format: cell-based, human
Procedure: Wells were then washed three times with phosphate buffered saline (PBS) containing 0.05 % v/v Tween, 0.5 % w/v bovine gelatin type B (Sigma Aldrich), and blocked by incubation with PBS containing 1.0 % w/v gelatin at 37 °C for 1 h. […] Wells with samples from UNC[…] cells were incubated with biotinylated-Helix pomatia agglutinin prepared in the blocking solution. These wells were then washed before incubation with HRP-labelled streptavidin. Finally, plates containing samples from all cell lines were washed repeatedly and developed by the addition of substrate solution which consisted of o-phenylene diamine (Sigma […] tablet) prepared according to manufacturer's instructions, for 3 min at room temperature, after which the reaction was terminated by the addition of 20% (v/v) H2SO4. The absorbance at 492 nm was measured using an Ascent MultiskanTM plate reader (Thermo Fisher Scientific). The absorbance of the samples was compared with known mucin standards, purified by two rounds of density gradient ultracentrifugation, as described by […] et al., from the sputum of a volunteer with chronic obstructive pulmonary disease. Ethical approval was obtained from the University of Brighton School of Pharmacy and Biomolecular Sciences Ethics Committee, under reference PABSREC 0509, and informed consent was obtained from the volunteer.

UNCN3T cells [3] = assay: TEER of UNCN3T cells before and after AMP-PNP; settings: AMP-PNP 100 μM
UNCN3T cells [4] = assay: Enhancement of mucin secretion using AMP-PNP (Secretagogue model), ELLA, UNCN3T; format: cell-based, human
Procedure: Cells cultured on inserts were arbitrarily divided into two groups termed 'low mucus' and 'high mucus'. […] Plates were kept on a shock-absorbing foam pad to prevent inadvertent mechanical stimulation of mucin secretion. […] Washes were stored at 4 °C until mucin secretion could be determined using an ELLA (on the day of treatment). At 10, 20 and 30 min, three further washes were performed and the average mucin content used to establish baseline mucin secretion. […] Each AMP-PNP/TB apical solution was changed (“like for like”) at 10-minute intervals. […] Wells were then washed three times with phosphate buffered saline (PBS) containing 0.05 % v/v Tween, 0.5 % w/v bovine gelatin type B (Sigma Aldrich), and blocked by incubation with PBS containing 1.0 % w/v gelatin at 37 °C for 1 h. […] Wells with samples from UNC[…] cells were incubated with biotinylated-Helix pomatia agglutinin prepared in the blocking solution. These wells were then washed before incubation with HRP-labelled streptavidin. Finally, plates containing samples from all cell lines were washed repeatedly and developed by the addition of substrate solution which consisted of o-phenylene diamine (Sigma […] tablet) prepared according to manufacturer's instructions, for 3 min at room temperature, after which the reaction was terminated by the addition of 20% (v/v) H2SO4. The absorbance at 492 nm was measured using an Ascent MultiskanTM plate reader (Thermo Fisher Scientific). The absorbance of the samples was compared with known mucin standards, purified by two rounds of density gradient ultracentrifugation, as described by […] et al., from the sputum of a volunteer with chronic obstructive pulmonary disease. Ethical approval was obtained from the University of Brighton School of Pharmacy and Biomolecular Sciences Ethics Committee, under reference PABSREC 0509, and informed consent was obtained from the volunteer.

Calu-3 cells = assay: Enhancement of mucin secretion using AMP-PNP (Secretagogue model), ELLA, Calu-3; format: cell-based, human; settings: Calu-3, AMP-PNP 100 μM, apical
Procedure: Cells cultured on inserts were arbitrarily divided into two groups termed 'low mucus' and 'high mucus'. […] Plates were kept on a shock-absorbing foam pad to prevent inadvertent mechanical stimulation of mucin secretion. […] Washes were stored at 4 °C until mucin secretion could be determined using an ELLA (on the day of treatment). At 10, 20 and 30 min, three further washes were performed and the average mucin content used to establish baseline mucin secretion. […] Each AMP-PNP/TB apical solution was changed (“like for like”) at 10-minute intervals. […] Wells were then washed three times with phosphate buffered saline (PBS) containing 0.05 % v/v Tween, 0.5 % w/v bovine gelatin type B (Sigma Aldrich), and blocked by incubation with PBS containing 1.0 % w/v gelatin at 37 °C for 1 h. […] Wells with samples from UNC[…] cells were incubated with biotinylated-Helix pomatia agglutinin prepared in the blocking solution. These wells were then washed before incubation with HRP-labelled streptavidin. […] The absorbance at 492 nm was measured using an Ascent MultiskanTM plate reader (Thermo Fisher Scientific). The absorbance of the samples was compared with known mucin standards, purified by two rounds of density gradient ultracentrifugation, as described by […] et al., from the sputum of a volunteer with chronic obstructive pulmonary disease. […]

[5] = UNCN3T control wells treated with 100 μM AMP-PNP at 100 min, by 120 min, data not shown

O=S(=O)([O-])[O-].[O]=[V+2] [VOSO4, Vanadium (IV) oxide sulfate]
IL-6 release, fold that of culture medium (UNCN3T cells [1]): 66 fold | IL-6 release (UNCN3T cells [1]; VOSO4 20 μg mL^−1, 30 min, medium alone 1.9 ± 0.3): 124.0 ± 6.5 pg/mL | IL-8 release (UNCN3T cells [1]; VOSO4 20 μg mL^−1, 30 min, medium alone 12.5 ± 0.6): 251.1 ± 14.5 pg/mL

CCCC1O[C@@H]2C[C@H]3[C@@H]4CCC5=CC(=O)C=C[C@]5(C)[C@H]4[C@@H](O)C[C@]3(C)[C@]2(C(=O)CO)O1 (some centres unmarked) [budesonide]
Effect on IL-8 release (UNCN3T cells [1]; 20 μM, 30 min): significantly increased | Effect on mucin secretion (UNCN3T cells [2]; UNCN3T, inhaled drugs, vs culture medium alone): no effect

Nc1ncnc2c1ncn2[C@@H]1O[C@H](COP(=O)([O-])OP(=O)([O-])NP(=O)([O-])[O-])[C@@H](O)[C@H]1O.[Li+].[Li+].[Li+].[Li+] [AMP-PNP, adenylyl-imidodiphosphate, tetralithium salt]
Mucin secretion (UNCN3T cells [2]; UNCN3T on Geltrex-coated plastic, AMP-PNP 100 μM, 30 min, medium alone 0.94 ± 0.04): 3.22 ± 0.24 ng/well | Effect upon TEER (UNCN3T cells [3]): no discernible effect | Mean TEER after treatment (UNCN3T cells [3]; before treatment 229 ± 20): 219 ± 19 Ω.cm^2 | Fold increase in mucin secretion (UNCN3T cells [4]; [5]): 1.5 fold | Mucin level after AMP-PNP (UNCN3T cells [4]; [5]): 4.34 ± 0.83 ng/well | Fold increase in mucin secretion (UNCN3T cells [4]; UNCN3T, AMP-PNP 100 μM, vs baseline): 2 fold | Mucin level after AMP-PNP (UNCN3T cells [4]; UNCN3T, AMP-PNP 100 μM, baseline 2.91 ± 0.92): 5.44 ± 1.63 ng/well | Effect on quantity of mucin secreted (Calu-3 cells): no significant increase | Effect on quantity of mucin secreted (Calu-3 cells; listed as adenylyl-imidodiphosphate): not
